From PubChem BioAssay (NCI)
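Method: 48-hour compound exposure of cells in 96-well plates, five concentrations, linear interpolation of endpoints. Here, GI50 denotes the concentration required for 50% inhibition of growth. The concentration for full growth arrest is given as TGI.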

How the values were obtained:
Experiment in all cases: NCI tumour cell line growth inhibition, 48 h
[1] = system: SNB-78 CNS
[2] = system: ACHN renal
[3] = system: SK-MEL-2 melanoma
[4] = system: SNB-75 CNS
[5] = system: HOP-18 NSCLC
[6] = system: SK-MEL-28 melanoma
[7] = system: KM20L2 colon
[8] = system: RPMI-8226 leukemia
[9] = system: CCRF-CEM leukemia
[10] = system: UACC-62 melanoma
[11] = system: TK-10 renal
[12] = system: NCI-H460 lung
[13] = system: OVCAR-8 ovarian
[14] = system: K-562 leukemia
[15] = system: OVCAR-3 ovarian
[16] = system: NCI-H23 lung
[17] = system: CAKI-1 renal
[18] = system: HOP-62 NSCLC
[19] = system: SF-268 CNS
[20] = system: DLD-1 colon
[21] = system: LXFL 529 NSCLC
[22] = system: HCT-116 colon
[23] = system: EKVX NSCLC
[24] = system: HT29 colon
[25] = system: KM12 colon
[26] = system: A549 NSCLC
[27] = system: HCC-2998 colon
[28] = system: UACC-257 melanoma
[29] = system: SK-OV-3 ovarian
[30] = system: OVCAR-5 ovarian
[31] = system: HL-60(TB) leukemia
[32] = system: 786-0 renal
[33] = system: HCT-15 colon
[34] = system: DMS 273 small cell lung
[35] = system: NCI-H522 lung
[36] = system: IGROV1 ovarian
[37] = system: MALME-3M melanoma
[38] = system: U251 CNS
[39] = system: DMS 114 small cell lung
[40] = system: UO-31 renal
[41] = system: M14 melanoma
[42] = system: SNB-19 CNS
[43] = system: SK-MEL-5 melanoma
[44] = system: SW-620 colon
[45] = system: HOP-92 NSCLC
[46] = system: SF-539 CNS
[47] = system: A498 renal
[48] = system: SF-295 CNS
[49] = system: LOX IMVI melanoma
[50] = system: COLO 205 colon
[51] = system: SN12C renal
[52] = system: NCI-H226 lung
[53] = system: RXF-631 renal
[54] = system: RXF 393 renal
[55] = system: MOLT-4 leukemia
[56] = system: OVCAR-4 ovarian
[57] = system: M19-MEL melanoma
[58] = system: SR leukemia

With `O=[N+]([O-])[O-].O=[N+]([O-])[O-].[Au].[Au].c1ccc([P-]c2ccccc2)cc1.c1ccc([P-]c2ccccc2)cc1` the GI50 [1] was 61 µM, the TGI [1] was over 100 µM and the GI50 [2] was 17 µM. It also gave a TGI [2] of 33.9 µM, a GI50 [3] of 31.1 µM and a TGI [3] of 58.1 µM. The GI50 [4] was 51.4 µM, the TGI [4] was over 100 µM and the GI50 [5] was 18.5 µM. The TGI [5] was 37.6 µM, the GI50 [6] was 29.3 µM and the TGI [6] was 75.6 µM. For the same compound, the GI50 [7] was 36.4 µM, the TGI [7] was over 100 µM and the GI50 [8] was 14.3 µM. For the same compound, the TGI [8] was over 100 µM, the GI50 [9] was 18.8 µM and the TGI [9] was over 100 µM. It also gave a GI50 [10] of 30 µM, a TGI [10] of 65.3 µM and a GI50 [11] of 23.3 µM. The TGI [11] was 53.6 µM, the GI50 [12] was 20.4 µM and the TGI [12] was over 100 µM. For the same compound, the GI50 [13] was 35.3 µM, the TGI [13] was over 100 µM and the GI50 [14] was 23.6 µM. For the same compound, the TGI [14] was over 100 µM, the GI50 [15] was 26.4 µM and the TGI [15] was 55.4 µM. For the same compound, the GI50 [16] was 36 µM, the TGI [16] was over 100 µM and the GI50 [17] was 26.9 µM. For the same compound, the TGI [17] was 52.7 µM, the GI50 [18] was over 100 µM and the TGI [18] was over 100 µM. For the same compound, the GI50 [19] was 65.1 µM, the TGI [19] was over 100 µM and the GI50 [20] was 47 µM. The TGI [20] was over 100 µM, the GI50 [21] was 14.2 µM and the TGI [21] was 32.7 µM. It also gave a GI50 [22] of 44.2 µM, a TGI [22] of over 100 µM and a GI50 [23] of 33.4 µM. For the same compound, the TGI [23] was 63 µM, the GI50 [24] was 71.3 µM and the TGI [24] was over 100 µM. For the same compound, the GI50 [25] was 46.3 µM, the TGI [25] was over 100 µM and the GI50 [26] was 84 µM. The TGI [26] was over 100 µM, the GI50 [27] was 71.8 µM and the TGI [27] was over 100 µM. For the same compound, the GI50 [28] was 26.3 µM, the TGI [28] was 62.7 µM and the GI50 [29] was over 100 µM. It also gave a TGI [29] of over 100 µM, a GI50 [30] of over 100 µM and a TGI [30] of over 100 µM. It also gave a GI50 [31] of 12 µM, a TGI [31] of over 100 µM and a GI50 [32] of 19.2 µM. It also gave a TGI [32] of 58.7 µM, a GI50 [33] of 27 µM and a TGI [33] of over 100 µM. It also gave a GI50 [34] of 39.2 µM, a TGI [34] of over 100 µM and a GI50 [35] of 3.64 µM. It also gave a TGI [35] of 46.3 µM, a GI50 [36] of 46.2 µM and a TGI [36] of over 100 µM. It also gave a GI50 [37] of 19.8 µM, a TGI [37] of 47 µM and a GI50 [38] of 36.6 µM. The TGI [38] was over 100 µM, the GI50 [39] was 37.5 µM and the TGI [39] was over 100 µM. The GI50 [40] was 25.9 µM, the TGI [40] was 47.5 µM and the GI50 [41] was 22.6 µM. The TGI [41] was 52.9 µM, the GI50 [42] was over 100 µM and the TGI [42] was over 100 µM. It also gave a GI50 [43] of 34.1 µM, a TGI [43] of 88.8 µM and a GI50 [44] of 38.7 µM. It also gave a TGI [44] of over 100 µM, a GI50 [45] of 26.6 µM and a TGI [45] of 51.5 µM. It also gave a GI50 [46] of 43.9 µM, a TGI [46] of 77.7 µM and a GI50 [47] of over 100 µM. For the same compound, the TGI [47] was over 100 µM, the GI50 [48] was over 100 µM and the TGI [48] was over 100 µM. It also gave a GI50 [49] of 35.3 µM, a TGI [49] of over 100 µM and a GI50 [50] of 28 µM. It also gave a TGI [50] of over 100 µM.
`BrC1=CC=C2NCCCCCCN=C3C=CC(Br)=CC=C3NCCCCCCN=C2C=C1` showed a TGI [1] of over 25.5 µM, a TGI [2] of over 25.5 µM and a TGI [3] of over 25.5 µM. It also gave a TGI [4] of over 25.5 µM, a TGI [6] of over 25.5 µM and a TGI [7] of over 25.5 µM. For the same compound, the TGI [8] was over 25.5 µM, the TGI [9] was over 25.5 µM and the TGI [10] was over 25.5 µM. It also gave a TGI [11] of over 25.5 µM, a TGI [51] of over 25.5 µM and a TGI [52] of over 25.5 µM. The TGI [12] was over 25.5 µM, the TGI [53] was over 25.5 µM and the TGI [13] was over 25.5 µM. It also gave a TGI [14] of over 25.5 µM, a TGI [15] of over 25.5 µM and a TGI [16] of over 25.5 µM. For the same compound, the TGI [17] was over 25.5 µM, the TGI [18] was over 25.5 µM and the TGI [19] was over 25.5 µM. It also gave a TGI [20] of over 25.5 µM, a TGI [22] of over 25.5 µM and a TGI [23] of over 25.5 µM. It also gave a TGI [24] of over 25.5 µM, a TGI [25] of over 25.5 µM and a TGI [26] of over 25.5 µM. The TGI [27] was over 25.5 µM, the TGI [28] was over 25.5 µM and the TGI [29] was over 25.5 µM. For the same compound, the TGI [30] was over 25.5 µM, the TGI [31] was over 25.5 µM and the TGI [32] was over 25.5 µM. The TGI [33] was over 25.5 µM, the TGI [34] was over 25.5 µM and the TGI [35] was over 25.5 µM. It also gave a TGI [36] of over 25.5 µM, a TGI [37] of over 25.5 µM and a TGI [38] of over 25.5 µM. It also gave a TGI [39] of over 25.5 µM, a TGI [40] of over 25.5 µM and a TGI [41] of over 25.5 µM. The TGI [42] was over 25.5 µM, the TGI [43] was over 25.5 µM and the TGI [54] was over 25.5 µM. For the same compound, the TGI [55] was over 25.5 µM, the TGI [44] was over 25.5 µM and the TGI [45] was over 25.5 µM. It also gave a TGI [46] of over 25.5 µM, a TGI [47] of over 25.5 µM and a TGI [48] of over 25.5 µM. It also gave a TGI [49] of over 25.5 µM, a TGI [56] of over 25.5 µM and a TGI [57] of over 25.5 µM.
Work on `Cc1c2n(c3ccccc13)CC1CON(C)C21` (centres undefined) yielded a TGI [1] of over 100 µM, a TGI [3] of over 100 µM and a TGI [4] of over 100 µM. For the same compound, the TGI [6] was over 100 µM, the TGI [8] was over 100 µM and the TGI [9] was over 100 µM. The TGI [10] was over 100 µM, the TGI [52] was over 100 µM and the TGI [53] was over 100 µM. For the same compound, the TGI [14] was over 100 µM, the TGI [16] was over 100 µM and the TGI [17] was over 100 µM. For the same compound, the TGI [18] was over 100 µM, the TGI [19] was over 100 µM and the TGI [20] was over 100 µM. For the same compound, the TGI [21] was over 100 µM, the TGI [22] was over 100 µM and the TGI [27] was over 100 µM. For the same compound, the TGI [29] was over 100 µM, the TGI [31] was over 100 µM and the TGI [32] was over 100 µM. The TGI [34] was over 100 µM, the TGI [35] was over 100 µM and the TGI [36] was over 100 µM. It also gave a TGI [58] of over 100 µM, a TGI [37] of over 100 µM and a TGI [39] of over 100 µM. For the same compound, the TGI [40] was over 100 µM, the TGI [41] was over 100 µM and the TGI [55] was over 100 µM. The TGI [45] was over 100 µM, the TGI [46] was over 100 µM and the TGI [50] was over 100 µM. The TGI [56] was over 100 µM and the TGI [57] was over 100 µM.
